Laboratory results as given in paper PMC10002548, “Amorphous System of Hesperetin and Piperine—Improvement of Apparent Solubility, Permeability, and Biological Activities” (International Journal of Molecular Sciences, 2023).
Values after ≈ are worked out from the molar mass of the structure shown.

How the values were obtained:
in vitro = in vitro ADME
Method: (§1) The injection volume differed depending on the assay. […] The method’s duration was 10 min.
The sandwich consists of two 96-well microfilter plates.

[1] = PAMPA BBB permeability assay
Excerpt: For the stationary phase, a Dr. Maisch ReproSil-Pur Basic-C18 100 Å column with 5 µm particle size and 250 × 4.60 mm (Dr. Maisch, Ammerbuch-Entringen, Germany) was used. […] The mobile phase was vacuum-filtered through a 0.45 µm nylon filter (Phenomenex, Torrance, CA, USA). […] The injection volume differed depending on the assay.
The sandwich consists of two 96-well microfilter plates. The PAMPA systems contain two chambers: the donor chamber at the bottom and the acceptor chamber at the top. […] The plates were combined and then incubated for 3 h for both models in a humidity-saturated atmosphere with the temperature set at 37 °C. To assess the apparent permeability coefficient factor (Papp), 5.0 mg of raw compounds were dissolved in 1.0 mL of DMSO. Then, we followed the manufacturer’s guidelines for further performance in the assay. […] In the case of the studied systems, the solutions were first prepared in the same manner as in the solubility study. […] Next, the obtained solution was diluted 1:1 with donor solution for the GIT and BBB assays and placed in the donor compartment. The results were expressed as a concentration in the acceptor solution.

[2] = Dissolution study (paddle apparatus); format: physicochemical; details: phosphate buffer pH 6.8, 37 °C, 50 rpm; raw compound value after one hour
Method: as §1
(§2) Phosphate buffer at pH 6.8 was prepared according to the following description: in a 1000-mL volumetric flask, we placed 250 mL of 0.2 N potassium dihydrogen phosphate solution, then added 112 mL of 0.2 N sodium hydroxide solution, and filled the mixture up to 1000 mL with distilled water. High-quality pure water was prepared using a Direct-Q 3 UV purification system (Millipore, Molsheim, France, model Exil SA 67120).
The dissolution study was performed on the paddle apparatus. The amount of the compound and systems corresponding to 7.0 mg of each plant-origin active ingredient was added to the dissolution medium. The vessels were filled with 500 mL of phosphate buffer, pH 6.8; the temperature was maintained at 37 °C, and the paddles were set at a stirring speed of 50 rotations per minute. The 2.0 mL samples were withdrawn at predetermined time points with the replacement of equal volumes of temperature-equilibrated media.

physchem = format: physicochemical; details: for solubility thermodynamic at 3 h: pH 6.8, aqueous buffer, thermodynamic from solid
Method: as §1, §2
An excess amount of raw compounds and systems was placed in a 10 mL glass tube; then, 2.0 mL of phosphate buffer (pH 6.8) was added and left at room temperature for 3 h.

COc1ccc([C@@H]2CC(=O)c3c(O)cc(O)cc3O2)cc1O [Hesperetin, hesperetin]
concentration of hesperetin in the acceptor part, PAMPA GIT (in vitro; 3 h, pH 6.8): 25.8 ± 6.16 ng/mL
Papp (in vitro; PAMPA, raw compound dissolved in DMSO, donor pH ≈ 6.8, 3 h, 37 °C, read-out: apparent permeability coefficient (Papp), PAMPA GIT): 2.59 ×10⁻⁶ cm/s
Papp at 3 h ([1]; PAMPA, pH 7.4): 7.05 ×10⁻⁶ cm/s
concentration of hesperetin in the acceptor part, PAMPA BBB ([1]; donor pH ≈ 7.4, 3 h, 37 °C): 38.9 ± 16.6 ng/mL
hesperetin dissolved (% of the dose added to the dissolution medium) [2]: 23.75 ± 2.99%
Hesperetin Conc. (physchem; 3 h, pH 6.8): 0.005 ± 0.001 mg/mL
solubility thermodynamic at 3 h (physchem): 5 ± 1 µg/mL (≈ 16.5 µM)

O=C(/C=C/C=C/c1ccc2c(c1)OCO2)N1CCCCC1 [Piperine, piperine]
concentration of piperine in the acceptor part, PAMPA GIT (in vitro; 3 h, pH 6.8): 2.01 ± 0.1 µg/mL
Papp at 3 h (in vitro; PAMPA, pH 6.8): 37.3 ×10⁻⁶ cm/s
concentration of piperine in the acceptor part, PAMPA BBB ([1]; PAMPA, 3 h, pH 7.4): 1.03 ± 0.104 µg/mL
Papp at 3 h ([1]; PAMPA, pH 7.4): 40 ×10⁻⁶ cm/s
piperine dissolved (% of the dose added to the dissolution medium) [2]: 27.79 ± 3.38%
Piperine Conc. (physchem; 3 h, pH 6.8): 0.006 ± 0.001 mg/mL
solubility thermodynamic at 3 h (physchem): 6 ± 1 µg/mL (≈ 21 µM)
